This is an account of results in patent US10131659B2, “Iodonium analogs as inhibitors of NADPH oxidases and other flavin dehydrogenases; formulations thereof; and uses thereof” (priority 2014, dated 2018).

In series [1] the target is T1, NOX4 (Homo sapiens, UniProt Q9NPH5).
T1 construct: expressed in transfected cells; host or cells: HEK293
T1 sequence (Q9NPH5 1-578): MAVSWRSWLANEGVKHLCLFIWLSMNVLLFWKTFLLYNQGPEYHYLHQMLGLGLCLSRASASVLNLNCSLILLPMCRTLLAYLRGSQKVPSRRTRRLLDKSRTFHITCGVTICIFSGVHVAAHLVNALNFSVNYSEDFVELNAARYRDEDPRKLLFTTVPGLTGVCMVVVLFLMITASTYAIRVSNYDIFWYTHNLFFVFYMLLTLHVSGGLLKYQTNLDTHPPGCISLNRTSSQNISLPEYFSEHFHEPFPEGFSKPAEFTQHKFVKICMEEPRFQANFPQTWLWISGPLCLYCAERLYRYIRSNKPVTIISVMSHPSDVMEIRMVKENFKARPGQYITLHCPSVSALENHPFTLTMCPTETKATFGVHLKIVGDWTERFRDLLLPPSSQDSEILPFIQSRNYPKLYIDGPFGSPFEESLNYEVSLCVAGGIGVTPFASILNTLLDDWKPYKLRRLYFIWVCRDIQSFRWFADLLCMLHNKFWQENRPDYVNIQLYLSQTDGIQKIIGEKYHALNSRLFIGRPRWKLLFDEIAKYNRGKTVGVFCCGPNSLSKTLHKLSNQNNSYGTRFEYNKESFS
T1 sequence (P13498 2-195 partner limits assumed): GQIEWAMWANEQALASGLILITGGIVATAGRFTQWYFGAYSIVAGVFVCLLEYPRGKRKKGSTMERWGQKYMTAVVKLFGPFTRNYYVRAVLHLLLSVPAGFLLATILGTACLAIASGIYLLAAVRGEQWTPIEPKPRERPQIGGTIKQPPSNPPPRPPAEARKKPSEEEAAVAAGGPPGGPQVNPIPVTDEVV
Put plainly: NOX4-dependent H2O2 production, Amplex Red assay in reconstituted HEK293 cells. Particulars: 3-5 independent experiments; exposure for 30 min; read-out: IC50 ± SE, NOX4 HEK293. It counts as cell-based. The method, then:
H2O2 was measured by Amplex Red assay to determine NOX4 or Duox2 activity in fully reconstituted HEK293 cells. The method conducted was similar to the approach disclosed in Jaquet et al in Brit J. Pharmacology 164: 507-520, 2011 using somewhat different cell models for the NOX isoforms and we studied Duox2 in our own cell model.

Series [2] concerns HT-29 human colon cancer cells. Put plainly: Clonogenic assay, HT-29 cells. The series is classed as cell-based. Particulars: for IC50: Homo sapiens. The method, then:
Several iodonium analog compounds were analyzed for inhibition of HT-29 growth using a clonogenic assay performed as described in Doroshow et al Biochem. Biophys. Res. Commun. 135: 330-335, 1986.

Series [3] concerns the target T2, NOX2 (Homo sapiens, UniProt P04839).
T2 construct: fully differentiated HL-60 cells expressing active NOX2; endogenous in cells; host or cells: differentiated HL-60
Briefly: NOX2-dependent ROS production, luminescence assay for O2.- in differentiated HL-60 cells. It counts as cell-based. Particulars: 3-5 independent experiments; exposure for 30 min; read-out: IC50 ± SE, NOX2 HL-60.

The target of series [4] is T3, NOX1/A1/O1 (Homo sapiens, UniProt Q9Y5S8).
T3 construct: expressed in transfected cells; host or cells: HEK293
Put plainly: NOX1-dependent ROS production, luminescence assay for O2.- in HEK293 cells expressing the NOX1 complex. It counts as cell-based. Particulars: 3-5 independent experiments; exposure for 30 min; read-out: IC50 ± SE, NOX1/A1/O1 HEK 293.

Series [5] concerns NOX1, NOX2, NOX4, NOX5, and DUOX2. Briefly: Screening for NADPH oxidase isoform specificity in cellular models (all isoforms). It counts as cell-based, human. As to the method: To evaluate compound specificity, a luminescence assay for O2.^− was used with HEK293 cells expressing all components of the NOX1 complex; fully differentiated HL-60 cells expressing active NOX2; and UACC257 melanoma cells that exclusively express active NOX5. H2O2 was measured by Amplex Red assay to determine NOX4 or Duox2 activity in fully reconstituted HEK293 cells. The method conducted was similar to the approach disclosed in Jaquet et al in Brit J. Pharmacology 164: 507-520, 2011 using somewhat different cell models for the NOX isoforms and we studied Duox2 in our own cell model.

In series [6] the target is T4, NOX5 (Homo sapiens, UniProt Q96PH1).
T4 sequence (Q96PH1 1-765): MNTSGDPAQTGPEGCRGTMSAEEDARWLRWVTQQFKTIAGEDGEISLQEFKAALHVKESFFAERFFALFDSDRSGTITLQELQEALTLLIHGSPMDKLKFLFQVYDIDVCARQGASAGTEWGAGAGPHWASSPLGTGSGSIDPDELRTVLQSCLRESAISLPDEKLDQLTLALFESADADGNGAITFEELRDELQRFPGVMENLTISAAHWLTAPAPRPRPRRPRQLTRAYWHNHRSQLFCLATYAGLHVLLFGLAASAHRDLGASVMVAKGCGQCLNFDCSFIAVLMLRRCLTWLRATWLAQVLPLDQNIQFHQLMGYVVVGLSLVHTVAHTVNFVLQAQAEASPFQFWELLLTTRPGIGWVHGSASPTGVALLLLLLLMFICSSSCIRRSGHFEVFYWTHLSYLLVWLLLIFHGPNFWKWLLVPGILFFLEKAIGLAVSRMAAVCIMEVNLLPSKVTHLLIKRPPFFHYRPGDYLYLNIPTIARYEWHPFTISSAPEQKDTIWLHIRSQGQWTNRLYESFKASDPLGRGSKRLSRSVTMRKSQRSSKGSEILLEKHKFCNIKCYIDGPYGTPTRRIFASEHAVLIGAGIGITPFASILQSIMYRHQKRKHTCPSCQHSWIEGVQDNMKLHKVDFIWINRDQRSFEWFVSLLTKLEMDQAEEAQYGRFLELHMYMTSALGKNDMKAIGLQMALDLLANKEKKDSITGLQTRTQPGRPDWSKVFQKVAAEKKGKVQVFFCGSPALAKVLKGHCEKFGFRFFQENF
Put plainly: NOX5-dependent ROS production, luminescence assay for O2.- in UACC257 melanoma cells. The series is classed as cell-based. Particulars: 3-5 independent experiments; exposure for 30 min; read-out: IC50 ± SE, NOX5 UACC-257.

For series [7], the system named is HT-29 human colon cancer cells. The settings on record: Free Rad. Biol. Med. 57: 162-165, 2013; cited from earlier work.
For series [8], the system named is HT-29 human colon cancer cells. Briefly: Growth inhibition of HT-29 cells by MTT assay. The series is classed as cell-based. Particulars: Homo sapiens, HT-29; 48 hr drug exposure; read-out: IC50, HT-29 human colon cancer cell growth. The method, then:
The compounds were analyzed for growth inhibition of HT-29 human colon cancer cells by MTT assay: 48 hr, drug exposures over several orders of concentration. The MTT assay was performed as described in Wu et al J. Immunology 190: 1859-1872, 2013.
For orientation: Formazan colour is commonly taken as a measure of viable cells.

Series [9] deals with ROS production in HT-29 human colon cancer cells. Briefly: ROS production in HT-29 cells (chemiluminescence / DCF analytical cytometry). The series is classed as cell-based. Particulars: treatment for 24 hr with 10 nM.
Where [10] appears, read: HT-29, read-out: IC50 (±SE) clonogenic survival, 6 hrs drug exposure, 6 hrs exposure.

Take `O=S(=O)([O-])C(F)(F)F.c1csc([I+]c2cccs2)c1` [Compound 3, di-2-thienyliodonium triflate]: the IC50 in [1] is 29700 ± 41500 nM; in [2] (setting [10]) it was 91200 ± 58800 nM; in [3], 1490 ± 646 nM; in [4], 2220 ± 1210 nM; in series [6], 1200 ± 1120 nM. The “IC50 clonogenic survival, 2 hrs drug exposure (result in words)” value in series [2] (2 hrs exposure) is listed as “No Inhibition”. Moreover, in series [5], the “potency compared with parent molecule (DTI)” value is on record as “more potent than its parent molecule”.

As to `c1ccc2c(c1)[I+]c1ccccc1-2` [Compound 13, Diphenyleneiodonium chloride, reference compound], the “effect on cell cycle progression” value in series [7] is recorded as “only G1 block”. In addition, in [2], the “cytotoxic or cytostatic character” value was “cytostatic”. The “exposure required to inhibit growth / cell reproduction” value in series [2] is listed as “requires prolonged exposure”. The IC50 in series [2] (HT-29, 240 h, 10 days exposure, read-out: IC50 clonogenic survival, 10 days drug exposure) was around 10 nM; in [2] (HT-29, read-out: IC50 (±SE) clonogenic survival, 2 hrs drug exposure, 2 hrs exposure), 9300 ± 3900 nM; in series [2] (setting [10]) it was 799 ± 180 nM; in [8], 300 nM. In addition, in series [9], the “ROS production in HT-29 cells” value is reported as “significantly decreased”.
